From PubChem BioAssay AID806 (SRMLSC, 2007) come the findings set out here.

This experiment concerns virus-infected cells, CPE inhibition, dose response. Briefly: PubChem AID 806. Conditions: for EC90: measured here: EC90 CPE inhibition; for CC50: measured here: cytotoxicity, cell viability IC50.

Molecules are shown by their SMILES. The source made the active and inactive calls. The rule behind the calls is not given here. A value given as a limit tells only on which side of the number the result lay.

Turning to `O=C(CSc1ccc2nnc(-c3ccccc3)n2n1)NCc1ccco1`, the EC50 – broadly, the concentration needed to bring the measured effect to its halfway point – was > 60 µM (inactive); the EC90 (commonly the concentration at which the effect reaches the 90% level) is more than 60 µM; the CC50 (usually the concentration giving 50% cytotoxicity) is more than 60 µM.
Consider `CCS(=O)(=O)Nc1cccc(-c2nc3cccnc3s2)c1C`, for which the EC50 was > 60 µM (inactive), the EC90 was more than 60 µM and the CC50 is more than 60 µM.
Consider `O=C(COc1ccccc1)N(Cc1ccco1)c1ccc(O)cc1`, for which the EC50 was > 60 µM (inactive), the EC90 was more than 60 µM and the CC50 was more than 60 µM.
Take `O=C(CCS(=O)(=O)c1cccc2nsnc12)NCc1ccccc1`: the EC50 was > 60 µM (inactive), the EC90 is more than 60 µM and the CC50 was more than 60 µM.
Regarding `O=C(CSc1ccc2nnc(-c3cccnc3)n2n1)NCc1ccco1`, the EC50 was > 60 µM (inactive), the EC90 was more than 60 µM and the CC50 was more than 60 µM.
`CC(=O)Nc1cccc(NC(=O)c2cc3ccccc3o2)c1`: the EC50 was > 60 µM (inactive), the 90% effect concentration (EC90) is more than 60 µM and the CC50 is more than 60 µM.
Consider `COc1cccc(CNC(=O)c2ccc(S(=O)(=O)N3CCCC3)cc2)c1`, for which the EC50 is > 60 µM (inactive), the EC90 is more than 60 µM and the CC50 was more than 60 µM.
Regarding `Cc1nc2nc(-c3cccnc3)[nH]n2c(=O)c1Cc1ccccc1`, the EC50 was > 60 µM (inactive), the EC90 was more than 60 µM and the CC50 was more than 60 µM.
Turning to `Cc1cccc(-n2ncc3c(N4CCc5ccccc54)ncnc32)c1`, the EC50 was > 60 µM (inactive), the EC90 was more than 60 µM and the CC50 was more than 60 µM.
In the case of `NC1C2CN(c3nc4c(cc3F)c(=O)c(C(=O)O)cn4-c3ccc(F)cc3F)CC12` (stereo not drawn), the EC90 was more than 60 µM and the CC50 is 45.1 µM.
As to `COc1ccccc1Cn1c(=O)c2ccccc2n2c(Sc3ncnc4sccc34)nnc12`, the EC50 was > 60 µM (inactive), the EC90 was more than 60 µM and the CC50 was more than 60 µM.
On to `CCOC(=O)/C=c1\s/c(=C\c2ccccc2OC)c(=O)n1CC(=O)N1CCOCC1`, for which the EC50 is > 60 µM (inactive), the concentration for an effect of 90% (EC90) was more than 60 µM and the CC50 is more than 60 µM.
With `CCC(=O)N1CCn2c1nc1ccccc12`, the EC50 is > 60 µM (inactive), the EC90 is more than 60 µM and the CC50 is more than 60 µM.
With `Cc1cc(NC(=O)c2noc3c2CCc2ccccc2-3)no1`, the EC50 is > 60 µM (inactive), the EC90 is more than 60 µM and the CC50 was more than 60 µM.
For the compound `N#CCCCSc1nnc(-c2ccccn2)o1`, the EC50 was > 60 µM (inactive), the EC90 is more than 60 µM and the 50% cytotoxic concentration (CC50) is more than 60 µM.
In the case of `Cc1cc(C)n(S(=O)(=O)/C=C/c2ccccc2)n1`, the EC50 is 56.5 µM (inactive), the EC90 was more than 60 µM and the CC50 was more than 60 µM.
Regarding `CC(=O)Nc1ccc(Nc2ncnc3c2cnn3-c2ccc(C)cc2C)cc1`, the EC50 is > 60 µM (inactive), the 90% effect concentration (EC90) is more than 60 µM and the half-maximal cytotoxic concentration (CC50) was more than 60 µM.
On to `COc1cccc(NC(=O)C2CC(=O)OC23CCOC(C)(C)C3)c1` (stereo not drawn), for which the EC50 is > 60 µM (inactive), the EC90 was more than 60 µM and the CC50 was more than 60 µM.
Turning to `Cc1cccc(C)c1NC(=O)CCS(=O)(=O)c1cccc2nsnc12`, the EC50 was > 60 µM (inactive), the EC90 is more than 60 µM and the CC50 is more than 60 µM.
In the case of `C#CCSc1nnc(-c2ccc(C)cc2)o1`, the EC50 is > 60 µM (inactive), the EC90 was more than 60 µM and the half-maximal cytotoxic concentration (CC50) was more than 60 µM.
In the case of `COC(=O)Nc1ccc(S(=O)(=O)N2CCCCC2C(=O)NCc2ccco2)cc1` (stereo not drawn), the EC50 was > 60 µM (inactive), the EC90 is more than 60 µM and the CC50 is more than 60 µM.
In the case of `CC(C)CCNC(=O)C1CCCCN1S(=O)(=O)c1ccc(F)cc1` (stereo not drawn), the EC50 was > 60 µM (inactive), the EC90 is more than 60 µM and the CC50 is more than 60 µM.
As for `Cc1ccc(C)c(Cc2c(C)nc3c(C(=O)N4CCOCC4)cnn3c2C)c1`, the EC50 is > 60 µM (inactive), the EC90 is more than 60 µM and the 50% cytotoxic concentration (CC50) was more than 60 µM.
On to `COc1ccc(-n2ncc3c(N4CCc5ccccc54)ncnc32)cc1`, for which the EC50 was > 60 µM (inactive), the concentration for an effect of 90% (EC90) is more than 60 µM and the CC50 was more than 60 µM.
For the compound `COc1cccc(CNC(=O)CCS(=O)(=O)c2cccc3nsnc23)c1`, the EC50 is > 60 µM (inactive), the EC90 was more than 60 µM and the CC50 is more than 60 µM.
As for `Cc1ccc(NC(=O)C2=C(O)c3sccc3N(C)S2(=O)=O)cc1`, the EC50 was > 60 µM (inactive), the 90% effect concentration (EC90) was more than 60 µM and the CC50 is more than 60 µM.
For `Cc1ccccc1NC(=O)c1ccc(NC(=O)c2ccco2)cc1`, the EC50 was > 60 µM (inactive), the 90% effect concentration (EC90) was more than 60 µM and the CC50 is more than 60 µM.
Consider `CC(C)NC(=O)CSc1nnc2sc3ccccc3n12`, for which the EC50 was > 60 µM (inactive), the concentration for an effect of 90% (EC90) was more than 60 µM and the CC50 was more than 60 µM.
`Clc1cccc(Nc2ncnc3c2cnn3-c2ccccc2)c1`: the EC50 is > 60 µM (inactive), the EC90 was more than 60 µM and the CC50 was more than 60 µM.
In the case of `O=C(Nc1ccccc1)N1CCn2c1nc1ccccc12`, the EC50 is > 60 µM (inactive), the concentration for an effect of 90% (EC90) is more than 60 µM and the CC50 was more than 60 µM.
For `COc1ccc(-c2nnc3ccc(SCC(=O)NCc4ccco4)nn23)cc1OC`, the EC50 was > 60 µM (inactive), the EC90 is more than 60 µM and the CC50 is more than 60 µM.
On to `Cc1cc(NC(=O)CSc2nnc(CNc3ccc(F)cc3)n2C2CCCCC2)no1`, for which the EC50 is 61.8 µM (inactive), the EC90 is more than 60 µM and the CC50 is more than 60 µM.
In the case of `CCCNC(=O)c1noc2c1CCc1ccccc1-2`, the EC50 is > 60 µM (inactive), the concentration for an effect of 90% (EC90) is more than 60 µM and the CC50 was more than 60 µM.
Regarding `CN1c2ccsc2C(O)=C(C(=S)Nc2ccccc2)S1(=O)=O`, the EC50 was > 60 µM (inactive), the EC90 is more than 60 µM and the 50% cytotoxic concentration (CC50) was more than 60 µM.
Turning to `O=C(CSc1ccc2nnc(-c3ccc(F)cc3)n2n1)NCc1ccco1`, the EC50 is > 60 µM (inactive), the EC90 is more than 60 µM and the CC50 was more than 60 µM.
For `O=C(c1ccc(S(=O)(=O)N2CCOCC2)cc1)N1CCc2ccccc2C1`, the EC50 is > 60 µM (inactive), the EC90 was more than 60 µM and the CC50 is more than 60 µM.
For `CC1CCCN(c2ccc(C(=O)NCc3cccs3)cn2)C1` (stereo not drawn), the EC50 is > 60 µM (inactive), the EC90 is more than 60 µM and the CC50 is more than 60 µM.
Consider `CC(C)(C)OC(=O)NCCc1nnc(SCc2ccc(Cl)cc2)o1`, for which the EC50 is > 60 µM (inactive), the EC90 was more than 60 µM and the CC50 is more than 60 µM.
With `CC(C)(C)OC(=O)NCCc1nnc(SCc2c(Cl)cccc2Cl)o1`, the EC50 was > 60 µM (inactive), the EC90 was more than 60 µM and the CC50 was more than 60 µM.
`O=C(Nc1ccccc1)c1cc2ccccc2o1`: the EC50 was > 60 µM (inactive), the EC90 is more than 60 µM and the CC50 was more than 60 µM.
Take `COc1ccccc1NC(=O)CS(=O)(=O)c1cccc2nsnc12`: the EC50 was > 60 µM (inactive), the EC90 was more than 60 µM and the CC50 was more than 60 µM.
For `CCOc1ncccc1C(=O)NCc1ccc(OC)cc1`, the EC50 was > 60 µM (inactive), the EC90 is more than 60 µM and the CC50 was more than 60 µM.
For `Cc1nc2c(C(=O)N3CCOCC3)cnn2c(C)c1Cc1ccc(Cl)cc1`, the EC50 was > 60 µM (inactive), the EC90 was more than 60 µM and the CC50 is more than 60 µM.
Consider `O=C(c1cc(-c2ccc(Cl)cc2)n(-c2cc(Cl)ccc2Cl)n1)N1CCOCC1`, for which the EC50 is > 60 µM (inactive), the EC90 is more than 60 µM and the CC50 was more than 60 µM.
`O=C(CSc1nnc2sc3ccccc3n12)N1CCN(c2ccccc2)CC1`: the EC90 is more than 60 µM and the CC50 is more than 60 µM.
In the case of `CSc1nnc(-c2ccc(Cl)cc2Cl)o1`, the EC50 is 48.5 µM (inactive), the concentration for an effect of 90% (EC90) is more than 60 µM and the CC50 is more than 60 µM.
With `Cc1cc(NC(=O)CSc2nnc(-c3cccnc3)n2C2CCCCC2C)no1` (stereo not drawn), the EC50 was > 60 µM (inactive), the EC90 is more than 60 µM and the CC50 was more than 60 µM.
With `CCOc1ccc(NC(=O)C2CCCCN2S(=O)(=O)c2ccccc2)cc1` (stereo not drawn), the EC50 was > 60 µM (inactive), the EC90 is more than 60 µM and the cytotoxic concentration (CC50) was more than 60 µM.
`Cc1cccc(-n2ncc3c(Nc4ccc(F)cc4)ncnc32)c1`: the EC50 was > 60 µM (inactive), the EC90 is more than 60 µM and the half-maximal cytotoxic concentration (CC50) was more than 60 µM.
On to `COc1ccc(OC)c(NC(=O)c2cc3ccccc3o2)c1`, for which the EC50 was > 60 µM (inactive), the EC90 is more than 60 µM and the CC50 is more than 60 µM.
Take `CC(C)(C)c1ccc(OCCn2ccccc2=O)cc1`: the EC50 is > 60 µM (inactive), the EC90 was more than 60 µM and the 50% cytotoxic concentration (CC50) turned out to be 40.9 µM.
Consider `CC1CC(=O)C2=C(C1)Nc1ccccc1N(C(=O)COc1ccccc1)C2c1ccco1` (stereo not drawn), for which the EC50 is > 60 µM (inactive), the EC90 was more than 60 µM and the CC50 is more than 60 µM.
In the case of `O=C(NCc1ccco1)C1CCCCN1S(=O)(=O)c1ccc(F)cc1` (stereo not drawn), the EC50 was > 60 µM (inactive), the 90% effect concentration (EC90) was more than 60 µM and the CC50 is more than 60 µM.
In the case of `CCCCOc1ccc(C(=O)C(CN2CCOCC2)c2ccccc2)cc1` (stereo not drawn), the EC50 was > 60 µM (inactive), the EC90 was more than 60 µM and the CC50 is more than 60 µM.
As for `O=C1Cn2c(nc3ccccc32)N1c1ccccc1F`, the EC50 was > 60 µM (inactive), the EC90 was more than 60 µM and the CC50 is more than 60 µM.
